The source of these data is patent US8445674B2, “Heterocyclyl compounds” (Hoffmann-La Roche Inc, priority 2009, dated 2013).

pIC50: −log10 of the molar value.

The assay has as its target T1, human chemokine receptor 2 isoform B (Homo sapiens, UniProt P41597).
T1 construct: host or cells: CHOK1-CCR2B-A5 cells (CHO-K1)
T1 sequence (P41597 1-360 isoform P41597-2): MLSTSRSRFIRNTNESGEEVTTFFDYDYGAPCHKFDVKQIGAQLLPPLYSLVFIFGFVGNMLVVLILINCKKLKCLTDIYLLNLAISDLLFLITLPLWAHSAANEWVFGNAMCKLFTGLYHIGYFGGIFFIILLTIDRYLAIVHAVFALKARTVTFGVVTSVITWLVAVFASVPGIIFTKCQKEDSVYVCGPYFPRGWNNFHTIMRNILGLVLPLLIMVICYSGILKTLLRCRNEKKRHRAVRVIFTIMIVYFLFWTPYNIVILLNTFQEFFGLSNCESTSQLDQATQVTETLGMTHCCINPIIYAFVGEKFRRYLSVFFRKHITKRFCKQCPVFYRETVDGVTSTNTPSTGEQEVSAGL
In words: Calcium mobilization assay (FLIPR, antagonist activity against MCP-1). The class given is cell-based. The following applies: Ca mobilisation assay, CHOK1-CCR2B-A5 cells, inhibition of calcium increase induced by 20 nM MCP-1. The procedure, abridged: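 CHOK1 cells stably overexpressing human CCR2B, loaded with 4 μM Fluo-4 for 2 h at 30° C, compounds added and agonist signal read by FLIPR for 80 s. After 20-30 min at 30° C, 20 nM MCP-1 was added and fluorescence read again. IC50 is 50% inhibition of specific calcium increase (max minus basal).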
`COC(=O)[C@@H](CCC(=O)N1CCC2(CC2)[C@H](O)C1)N1CCN(C(=O)Nc2ccc(C(F)(F)F)c(Cl)c2)[C@@H](C)C1=O` [Example 145, (R)-2-[(S)-4-(3-Chloro-4-trifluoromethyl-phenylcarbamoyl)-3-methyl-2-oxo-piperazin-1-yl]-5-((S)-4-hydroxy-6-aza-spiro[2.5]oct-6-yl)-5-oxo-pentanoic acid methyl ester]: the pIC50 was 5.20.

`C[C@H]1C(=O)N([C@@H](CO)CCC(=O)N2CCC3(CC3)[C@H](O)C2)CCN1C(=O)Nc1ccc(C(F)(F)F)c(Cl)c1` [Example 146, (S)-4-[(R)-4-((S)-4-Hydroxy-6-aza-spiro[2.5]oct-6-yl)-1-hydroxymethyl-4-oxo-butyl]-2-methyl-3-oxo-piperazine-1-carboxylic acid (3-chloro-4-trifluoromethyl-phenyl)-amide]: the pIC50 was 6.80. In the case of `C[C@H]1C(=O)N(CCCC(=O)N2CCC3(CC3)[C@H](O)C2)[C@H](C(N)=O)CN1C(=O)Nc1ccc(C(F)(F)F)c(Cl)c1` [Example 147, (3S,6S)—N1-(3-chloro-4-(trifluoromethyl)phenyl)-4-(4-((S)-4-hydroxy-6-azaspiro[2.5]octan-6-yl)-4-oxobutyl)-6-methyl-5-oxopiperazine-1,3-dicarboxamide], the pIC50 is 8.46. The result for `C[C@H]1C(=O)N(CCCC(=O)N2CCC3(CC3)[C@H](O)C2)[C@@H](C(N)=O)CN1C(=O)Nc1ccc(C(F)(F)F)c(Cl)c1` [Example 148, (3R,6S)—N1-(3-chloro-4-(trifluoromethyl)phenyl)-4-(4-((S)-4-hydroxy-6-azaspiro[2.5]octan-6-yl)-4-oxobutyl)-6-methyl-5-oxopiperazine-1,3-dicarboxamide] reads 7.52; that for `C[C@H]1C(=O)N(CCCC(=O)N2CCC3(CC3)[C@H](O)C2)[C@H](C(N)=O)CN1C(=O)Nc1ccc(C(F)(F)F)c(C(F)(F)F)c1` [Example 149, (3S,6S)-4-[4-((S)-4-Hydroxy-6-aza-spiro[2.5]oct-6-yl)-4-oxo-butyl]-6-methyl-5-oxo-piperazine-1,3-dicarboxylic acid 3-amide 1-[(3,4-bis-trifluoromethyl-phenyl)-amide]], 8.66. The result for `C[C@@H]1C(=O)N(CCCC(=O)N2CCC3(CC3)[C@H](O)C2)[C@@H](C(N)=O)CN1C(=O)Nc1ccc(C(F)(F)F)c(Cl)c1` [Example 150, (3R,6R)-4-[4-((S)-4-Hydroxy-6-aza-spiro[2.5]oct-6-yl)-4-oxo-butyl]-6-methyl-5-oxo-piperazine-1,3-dicarboxylic acid 3-amide 1-[(3-chloro-4-trifluoromethyl-phenyl)-amide]] reads 7.74. Next, `C[C@@H]1C(=O)N(CCCC(=O)N2CCC3(CC3)[C@H](O)C2)[C@@H](C(N)=O)CN1C(=O)Nc1ccc(Cl)c(Cl)c1` [Example 151, (3R,6R)-4-[4-((S)-4-Hydroxy-6-aza-spiro[2.5]oct-6-yl)-4-oxo-butyl]-6-methyl-5-oxo-piperazine-1,3-dicarboxylic acid 3-amide 1-[(3,4-dichloro-phenyl)-amide]]: 7.21; “(S)-4-[4-((S)-4-Hydroxy-6-aza-spiro[2.5]oct-6-yl)-4-oxo-butyl]-2-methyl-3-oxo-piperazine-1-carboxylic acid (3-chloro-phenyl)-amide [Example 39]”: 6.02; “(rac)-2-{4-[(E)-3-(3,4-Dichloro-phenyl)-acryloyl]-7-oxo-[1,4]diazepan-1-yl}-4-hydroxy-N,N-dimethyl-butyramide [Example 4]”: 6.43.

One may read the pIC50 as −log10 of the IC50, conventionally taken in molar units.
